Values of other authors, collected in patent US20090081312A1, “PREVENTION AND TREATMENT OF ALVEOLAR OSTEITIS” (priority 2007, published 2009).

Tested on: bacterial cell growth
Conditions: silver ion; B Gibbins, Ostomy Wound Management 2003

## [Ag+] [silver ion, silver]
  quantity sufficient to prevent bacterial cell growth: one
